Read-outs that look alike come from different tables or passages of the source.
Legend:
SARS‐CoV‐2 = assay: microbe, parasite or virus in culture; format: cell-based
SARS‐CoV PL^pro [1] = molecular target: T1, SARS‐CoV PL^pro (Severe acute respiratory syndrome coronavirus, UniProt P0C6X7); assay: biochemical; format: biochemical
in vitro = conditions: African green monkey
SARS‐CoV‐2 PL^pro = SARS‐CoV‐2 PL^pro (Severe acute respiratory syndrome coronavirus 2, UniProt P0DTD1); assay: biochemical; format: biochemical
SARS‐CoV PL^pro [2] = molecular target: T1, SARS‐CoV PL^pro; conditions: read-out: IC50 SARS‐CoV PL^pro; cited from earlier work

Which “SI (selectivity index)” value (SARS‐CoV‐2) does the source give for C[C@@H](NC(=O)c1ccccc1Cl)c1cccc2ccccc12 [Compound 2 i, 2‐Chloro‐N‐[(1R)‐1‐naphth‐1‐ylethyl]benzamide] here?
The value was 212.

And the EC50 (SARS‐CoV‐2; Severe acute respiratory syndrome coronavirus 2, Vero C1008, 24 h, read-out: EC50 inhibition of SARS‐CoV‐2 replication)?
Its EC50 is 1.77 ± 1.6 µM.

And the IC50 (SARS‐CoV PL^pro [1])?
Its IC50 is 6.5 ± 0.8 µM.

And the CC50 (in vitro)?
Its CC50 is 376 ± 1.36 µM.

What about the IC50 (SARS‐CoV‐2 PL^pro) of the same molecule?
Its IC50 is 15 ± 2 µM.

What about the melting point of the same molecule?
Its melting point is 133 °C.

For CCc1ccccc1C(=O)NC(C)c1ccc2ccccc2c1 (centres unmarked) [Compound 19], which IC50 (SARS‐CoV PL^pro [2]) is on record?
Its IC50 is over 200 µM.

For C[C@H](c1cccc2ccccc12)N1CCC(C(=O)NCc2cccc(F)c2)CC1 [Compound 20], which IC50 (SARS‐CoV PL^pro [2]) is on record?
The IC50 was 0.15 µM.

From publication PMC7894572 (Chemmedchem, 2020)
